Measurements from patent US6218425A, “8-substituted B-nor-6-Thiaequilenin compounds having activity as selective estrogen receptor modulators” (Eli Lilly and Company, priority 1997, dated 2001).

Experiments:
[1] = test system: MCF-7 breast adenocarcinoma cells; assay: MCF-7 Proliferation Assay; type: cell-based; conditions: dose level of 500 nM
Protocol: A. MCF-7 Proliferation Assay Test Procedure MCF-7 breast adenocarcinoma cells (ATCC HTB 22) are maintained in MEM (minimal essential medium, phenol-red free, Sigma St. Louis Mo.) supplemented with 10% fetal bovine serum (FBS) (v/v), L-glutamine (2 mM), sodium pyruvate ([…]), HEPES (10 mM), non-essential amino acids, and bovine insulin (1 ug/mL). Ten days prior to the assay, the MCF-7 cells are switched to maintenance medium supplemented with 10% dextran-coated charcoal stripped fetal bovine serum (DCC-FBS) assay medium in place of the 10% FBS to deplete internal stores of estrogen. MCF-7 cells are removed from the maintenance flasks using a cell dissociating medium (Ca/Mg free HBSS; phenol-red free) supplemented with 10 mM HEPES and 2 mM EDTA. Cells are washed twice with the assay medium and adjusted to 80,000 cells/mL. Approximately 100 uL (8,000 cells)are added to a flat-bottomed micro culture well (Costar 3596) and incubated at 37° C. in a 5% CO2 humidified incubator for 48 hours to allow cell adherence and equilibrium after transfer. […] Samples are counted by liquid scintillation. Fifty percent inhibitory concentration of the test drugs (IC50) are determined versus the control (DMSO).

ovariectomized rats = assay: Ovariectomized rat model of postmenopausal hyperlipidemia (serum cholesterol, uterine weight, uterine eosinophil infiltration); type: in vivo; conditions: for Serum Cholesterol % Decrease / Uterine Weight Increase: versus ovariectomized controls
Protocol: Experimental models of postmenopausal hyperlipidemia are known in the art.
This uterine response to estrogen is well recognized in the art.
As expressed in the data below, estrogenicity also was assessed by evaluating the response of eosinophil infiltration into the uterus.
The data presented in Table 2 reflect the response per treatment group.

estrogen receptor = estrogen receptor (Homo sapiens, UniProt P03372); conditions: competition with 0.5 nM 3H-17β-estradiol, MCF-7 lysate protein, 18 hours at 5° C.
Protocol: Representative compounds of the present invention were tested in an estrogen receptor binding assay in which the test compounds were allowed to compete for binding with tritiated 17β-estradiol.
In the assay, serial dilutions of the test compound were mixed with 0.5 nM of ^3 H-17β-estradiol, along with 0.5 mg/mL of protein from MCF-7 lysates, to a total volume of 0.14 mL. Binding was allowed to take place for 18 hours at 5° C., followed by the addition of 0.07 mL of dextran/charcoal and centrifugation to remove non-bound radioligand. Aliquots of supernate containing bound radioligand were mixed with scintillant and counted. Relative binding affinity (RBA) was calculated as: [formula]

Sequence of estrogen receptor (P03372 whole entry): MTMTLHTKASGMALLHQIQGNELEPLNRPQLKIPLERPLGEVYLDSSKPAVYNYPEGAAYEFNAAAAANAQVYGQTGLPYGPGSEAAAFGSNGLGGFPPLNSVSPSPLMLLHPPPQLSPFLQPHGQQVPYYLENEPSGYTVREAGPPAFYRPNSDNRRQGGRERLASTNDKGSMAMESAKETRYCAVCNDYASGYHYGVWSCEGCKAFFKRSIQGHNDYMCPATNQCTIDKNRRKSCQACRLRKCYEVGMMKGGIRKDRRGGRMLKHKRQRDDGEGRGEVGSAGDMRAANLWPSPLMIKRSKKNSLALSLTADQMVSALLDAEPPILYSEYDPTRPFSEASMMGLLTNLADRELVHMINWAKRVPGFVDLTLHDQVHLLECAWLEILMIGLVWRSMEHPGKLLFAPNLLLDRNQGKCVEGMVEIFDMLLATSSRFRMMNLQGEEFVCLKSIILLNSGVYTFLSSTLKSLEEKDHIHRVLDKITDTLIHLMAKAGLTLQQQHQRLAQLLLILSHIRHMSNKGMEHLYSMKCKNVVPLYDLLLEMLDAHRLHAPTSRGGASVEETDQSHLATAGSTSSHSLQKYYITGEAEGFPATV

Structure (SMILES)	inhibition of breast cancer cell proliferation [1]	Uterine Eosinophil (Vmax) (eosinophil peroxidase, Vmaximum) (ovariectomized rats; dose 0.01 mg/kg)	Serum Cholesterol % Decrease (ovariectomized rats; dose 0.01 mg/kg)	Uterine Weight Increase (ovariectomized rats; dose 0.01 mg/kg)	Uterine Eosinophil (Vmax) (eosinophil peroxidase, Vmaximum) (ovariectomized rats; dose 0.1 mg/kg)	Serum Cholesterol % Decrease (ovariectomized rats; dose 0.1 mg/kg)	Uterine Weight Increase (ovariectomized rats; dose 0.1 mg/kg)	Uterine Eosinophil (Vmax) (eosinophil peroxidase, Vmaximum) (ovariectomized rats; dose 1.0 mg/kg)	Serum Cholesterol % Decrease (ovariectomized rats; dose 1.0 mg/kg)	Uterine Weight Increase (ovariectomized rats; dose 1.0 mg/kg)	Uterine Eosinophil (Vmax) (eosinophil peroxidase, Vmaximum) (ovariectomized rats; dose 10.0 mg/kg)	Serum Cholesterol % Decrease (ovariectomized rats; dose 10.0 mg/kg)	Uterine Weight Increase (ovariectomized rats; dose 10.0 mg/kg)	Relative binding affinity (RBA) (estrogen receptor)	eosinophil infiltration into the uterus (in words) (ovariectomized rats; EE2 group)	serum cholesterol (in words) (ovariectomized rats; orally administered at 0.1 mg/kg/day)	uterine weight (in words) (ovariectomized rats; orally at 0.1 mg/kg/day, versus ovariectomized animals)
C[C@]12CCc3c(sc4cc(O)ccc34)[C@H]1CC[C@@H]2O [Example 7, 3β,8-Dihydroxy-3aβ-methyl-2,3,3a,4,5,10bβ-tetrahydro-1H-benz[b]indeno[5,4-d]thiophene]	inhibit breast cancer cell proliferation	4.8	24.3%	-3.2%	4.8	13%	4.4%	3.6	45.9%	9.1%	123.0	80.7%	123.0%	11			
C[C@@]12CCc3c(sc4cc(O)ccc34)[C@H]1CC[C@H]2O [Example 11, 3α,8-Dihydroxy-3aα-methyl-2,3,3a,4,5,10bβ-tetrahydro-1H-benz[b]indeno[5,4-d]thiophene]														4			
COc1ccc2c3c(sc2c1)[C@H]1CC[C@@H](O)[C@]1(C)CC3 [Example 4b, 3α-hydroxy-8-methoxy-3aα-methyl-2,3,3a,4,5,10bβ-hexahydro-1H-benz[b]indeno[5,4-d]thiophene]					3.9	-12%	-2.6%	3.9	-4.3%	10.7%	30.0	73.1%	116.3%				
COc1ccc2c3c(sc2c1)[C@H]1CC[C@H](O)[C@]1(C)CC3 [Example 6, 3β-Hydroxy-8-methoxy-3aα-methyl-2,3,3a,4,5,10bβ-tetrahydro-1H-benz[b]indeno[5,4-d]thiophene]					3.0	-0.3%	4.8%	1.2	-4.7%	9.8%	8.1	63.7%	86.9%				
C[C@@]12CCc3c(sc4cc(O)ccc34)[C@@H]1CC[C@H]2O [Example 10, 3α,8-Dihydroxy-3aα-methyl-2,3,3a,4,5,10bα-tetrahydro-1H-benz[b]indeno[5,4-d]thiophene]														4			
COc1ccc2c3c(sc2c1)[C@@H]1CC[C@@H](O)[C@]1(C)CC3 [Example 4a, 3α-Hydroxy-8-methoxy-3aα-methyl-2,3,3a,4,5,10bα-hexahydro-1H-benz[b]indeno[5,4-d]thiophene]					3.6	-5.5%	10.4%	3.3	-8.1%	14.8%	2.4	63.8%	37.6%				
COc1ccc2c3c(sc2c1)[C@@H]1CC[C@@H](O)[C@@]1(C)CC3 [Example 5, 3α-Hydroxy-8-methoxy-3aβ-methyl-2,3,3a,4,5,10bα-tetrahydro-1H-benz[b]indeno[5,4-d]thiophene]		2.1	14.8%	-5.9%	3.6	-18.5%	1.7%	4.5	40.9%	13.7%	18.3	87.0%	103.6%				
C[C@]12CCc3c(sc4cc(O)ccc34)[C@@H]1CC[C@@H]2O [Example 8, 3β,8-Dihydroxy-3aβ-methyl-2,3,3a,4,5,10bα-tetrahydro-1H-benz[b]indeno[5,4-d]thiophene]		4.2	-1%	13.7%	4.5	10.6%	1.4%	3.0	16.9%	0.2%	14.7	30.7%	48.4%	16			
C#C[C@]1(O)CC[C@H]2[C@@H]3CCc4cc(O)ccc4[C@H]3CC[C@@]21C [EE2, 17-a-ethynyl estradiol, reference compound]					111.2	88.1%	125.8%								substantial and expected increase in eosinophil infiltration	caused a decrease in serum cholesterol	substantially greater than the uterine weight of the ovariectomized animals
C[C@]12CCc3c(sc4cc(O)ccc34)[C@@H]1CC[C@H]2O [Example 9, 3α,8-Dihydroxy-3aβ-methyl-2,3,3a,4,5,10bα-tetrahydro-1H-benz[b]indeno[5,4-d]thiophene]		4.5	5.7%	5.5%	3.3	12.4%	10.2%	3.9	32.1%	-5.3%	106.5	90.9%	103.1%	9			
COc1ccc2c3c(sc2c1)C1=CC[C@H](O)[C@@]1(C)CC3 [Example 1, 3β-Hydroxy-8-methoxy-3aβ-methyl-3,3a,4,5-tetrahydro-2H-benz[b]indeno[5,4-d]thiophene]		4.5	30.0%	-4.6%	5.4	5%	6.3%	4.8	27.5%	34.9%	25.2	60.3%	52.7%				
